Experimental data taken from patent publication EP2741758B1, “POLYPHENOLIC FORMULATION, ITS PREPARATION AND USE” (Uniwersytet Medyczny W Lodzi, priority 2011, dated 2013).

Tested on: HepG2, HMEC-1, A549, Caco-2, 3T3
Test: Multiparameter automated HCS cytotoxicity test "Cell health assay"
Type: cell-based
Parameters: scale not given here
Details: for cumulative cytotoxicity index: points over 5 cell lines; for cumulative cytotoxicity index, Total: sum over the five concentrations
Method: Thanks to the use of three fluorescent dyes (MitoTracker - Invitrogen, YO-[…], Hoechst 33 342 - Sigma), assessment of the impact of the studied extracts on the size, and morphology of the nucleus, cytoplasmic membrane integrity, and mitochondrial activity was made. Tests were performed on 96-well plates using 5 cell lines (HepG2, HMEC-1, A549, Caco-2, 3T3). The measurements were taken using automatic pipetting station JANUS by Perkin Elmer. The formulation was examined at five concentrations, measurements were taken in duplicates in 5 independent series. Based on the raw experimental data, statistical analysis of significance of observed differences in average values for three selected measurement parameters, measuring the fluorescence intensity, and dyed surface in cells, using fluorescent dyes, was made. The selected parameters illustrate: • 1. Surface of the cell nucleus (Hoechst (Sigma) • 2. Accumulation of YO-[…] dye (Invitrogen), indicating cytoplasmic membrane damage • 3. Mitochondrial potential (MitoTracker - Invitrogen) Then, the statistically significant differences for each tested concentration of each substance, which indicate morphological, and functional changes in cells, showing cytotoxic activity, were assigned with point values as shown in the diagram of assessment of the observed effects below. Differences subject to the scoring: • 1. Decrease, or increase in nucleus surface • 2. Increase in the accumulation of YO-[…] • 3. Decrease in the mitochondrial potential The following Table 13 illustrates the assigned point values given to the studied formulations in "Cell health assay" test. Table 13. Point values adopted in "Cell health assay" test. [table]

SMILES: O=c1c(O)c(-c2ccc(O)cc2)oc2cc(O)cc(O)c12 [Kaempferol]
- cumulative cytotoxicity index (5 µg/ml): 2.6
- cumulative cytotoxicity index (10 µg/ml): 1.4
- cumulative cytotoxicity index (30 µg/ml): 8.4
- cumulative cytotoxicity index (40 µg/ml): 8.4
- cumulative cytotoxicity index (50 µg/ml): 6.2
- cumulative cytotoxicity index, Total: 27.0

SMILES: C[C@@H]1O[C@@H](O[C@H]2[C@H](Oc3cc(O)c4c(c3)O[C@H](c3ccc(O)cc3)CC4=O)O[C@H](CO)[C@@H](O)[C@@H]2O)[C@H](O)[C@H](O)[C@H]1O [Naringin]
- cumulative cytotoxicity index (5 µg/ml): 0.0
- cumulative cytotoxicity index (10 µg/ml): 0.0
- cumulative cytotoxicity index (30 µg/ml): 0.2
- cumulative cytotoxicity index (40 µg/ml): 1.4
- cumulative cytotoxicity index (50 µg/ml): 0.2
- cumulative cytotoxicity index, Total: 1.8
